Columns and labels:
[1] = system: LN229; experiment: MTT cytotoxicity assay, LN229; format: cell-based, human; settings: 72 h incubation
Description: (§1) The cytotoxic activity of prepared RAPTA complexes (4a–4h) was evaluated by following the standard procedure of the MTT experiment against a series of glioblastoma cells (LN 229, T98, U87MG) in triplicate. In order to accomplish this study, cells were maintained for 72 h with complexes of various concentrations ranging from 2–160 μM, taking cisplatin as a typical positive control.[22]
(§2) RAPTA complexes were dissolved in 1% DMSO, and 0.9% NaCl aqueous solution was used to dissolve cisplatin. A cell suspension was prepared and the number of cells taken was 2.5 × 10^4 mL^−1. The cells were seeded in 96-well plates (200 μL per well) and allowed 80% confluence prior to treatment. The cells were formerly treated with various concentrations (2.5–160 μM) of complex 4a–h while the control group was treated with PBS […]. After the 72 hours of incubation, 0.5% MTT solution was added to each well (20 μL) and further incubated for 4 hours at […]. The formazan crystals that were formed were dissolved in 150 μL DMSO and then the OD was measured by a microplate reader at 540 nm. The % growth inhibition of the control and treated cells were calculated and represented as the growth inhibition percentage as explained below.% growth inhibition = 100 − [(AD × 100)/AB]where AD is the absorbance measured in wells containing the treated and control samples and AB is the measured absorbance for the wells with media and a vehicle that served as the blank. IC50 was calculated using Graphpad Prism (version 6.0) where % cell viability was plotted against drug concentration.

[2] = system: U87MG; experiment: MTT cytotoxicity assay, U87MG; format: cell-based, human; settings: 72 h incubation
Description: as §1, §2

[3] = Conductivity measurement; format: physicochemical; settings: 3 x 10^-5 M; for Conductivity (ΛM) 10% aq DMSO: in 10% aq DMSO; for Conductivity (ΛM) DMSO: in DMSO
Text: concentrations gradually.
Origin Lab, version 8.5 was
equation (v) given below: […]
Conductivity measurement 7
complexes with DMSO and aqueous DMSO.
followed the previously described procedure. An orbital shaker was used to shake a known
Different ratios (0.5:1, 1:1,
saturated n-octanol to get the partition coefficient. The absorbance of aliquots of the aqueous

[4] = system: T98; experiment: MTT cytotoxicity assay, T98; format: cell-based, human; settings: 72 h incubation
Description: as §1, §2

[5] = n-Octanol/water partition coefficient, shake-flask method
Description: n-Octanol–water partition coefficient (log P o/w)8
Using the previously reported shake flask approach, the log Po/w of the RAPTA complexes
amount of each complexes in water (pre-saturated with n-octanol). The solution was
centrifuged at 3000 rpm for 10 minutes to allow phase separation. Different ratios (0.5:1, 1:1,
and 2:1) of saturated solutions were shaken for 20 minutes on an orbital shaker with pre-
and octanol layers were measured with a UV-Vis spectrophotometer after adequate dilution.
The concentrations of the complexes in each layer were estimated using the corresponding
molar extinction coefficients, and the partition coefficient (log Po/w) values were computed

[6] = Solubility; settings: DMSO-10% DMEM medium (1:99 v/v, comparable to cell media)
[7] = system: Ct-DNA; settings: comparison value, no reference given; cited from earlier work
[8] = system: EtBr-bound DNA (Ct-DNA); set-up: method as in PMID 34612310; settings: from literature ref 20; cited from earlier work

Compound	IC50 [1] [nM]	IC50 [2] [nM]	Conductivity (ΛM) 10% aq DMSO [3] [S cm2 mol-1]	Conductivity (ΛM) DMSO [3] [S cm2 mol-1]	IC50 [4] [nM]	log P (partition coefficient in n-octanol/water) [5]	solubility [6] [mM]	KEtBr, DNA binding constant of the typical intercalator [7] [M⁻¹]	KEtBr, EtBr binding constant [8] [M⁻¹]
C1N2CN3CN1CP(C2)C3.Cc1ccc(C(C)C)cc1.F[P-](F)(F)(F)(F)F.F[P-](F)(F)(F)(F)F.Oc1ccnc2c1ccc1c(O)ccnc12.[Ru+2] [4a, [(η^6-p-Cymene)Ru^II(κ^2-N,N-4,7dihydroxyphenanthroline)(PTA)]·2PF6]	1800 ± 40	1690 ± 40	74	72	1950 ± 40	–	–	–	–
C1N2CN3CN1CP(C2)C3.Cc1ccc(C(C)C)cc1.F[P-](F)(F)(F)(F)F.F[P-](F)(F)(F)(F)F.[Ru+2].c1cnc2c(c1)ccc1cccnc12 [4b, [(η^6-p-Cymene)Ru^II(κ^2-N,N-phenanthroline)(PTA)]·2PF6]	2190 ± 160	1910 ± 80	78	74	1910 ± 80	–	–	–	–
C1N2CN3CN1CP(C2)C3.Cc1ccc(C(C)C)cc1.F[P-](F)(F)(F)(F)F.F[P-](F)(F)(F)(F)F.[Ru+2].c1ccc(-c2ccccn2)nc1 [4e, [(η^6-p-Cymene)Ru^II(κ^2-N,N-bipyridine)(PTA)]·2PF6]	1890 ± 60	1750 ± 30	–	–	1990 ± 40	1.4±0.08	–	–	–
C1N2CN3CN1CP(C2)C3.Cc1ccc(C(C)C)cc1.F[P-](F)(F)(F)(F)F.F[P-](F)(F)(F)(F)F.O=C(O)c1ccnc(-c2cc(C(=O)O)ccn2)c1.[Ru+2] [4f, [(η^6-p-Cymene)Ru^II(κ^2-N,N-4,4′ dicarboxylic acid bipyridine)(PTA)]·2PF6]	1790 ± 20	1570 ± 20	77	75	2120 ± 30	0.33±0.03	17	–	–
C1N2CN3CN1CP(C2)C3.CCCCCCCCCc1ccnc(-c2cc(CCCCCCCCC)ccn2)c1.Cc1ccc(C(C)C)cc1.F[P-](F)(F)(F)(F)F.F[P-](F)(F)(F)(F)F.[Ru+2] [4h, [(η^6-p-Cymene)Ru^II(κ^2-N,N-4,4′ dinonylbipyridine)(PTA)]·2PF6]	1640 ± 30	1460 ± 30	77	71	1470 ± 30	–	–	–	–
CC[n+]1c(-c2ccccc2)c2cc(N)ccc2c2ccc(N)cc21 [EtBr, ethidium bromide]	–	–	–	–	–	–	–	700000	1e+07
[(η^6-p-Cymene)Ru^II(κ^2-N,N-4,4′ dimethylbipyridine)(PTA)]·2PF6 [4g]	1690 ± 20	1700 ± 30	74	72	1700 ± 30	–	–	–	–
cis-[Pt(NH3)2Cl2] [Cisplatin, reference compound]	1400 ± 50	1370 ± 40	–	–	1360 ± 50	–	–	–	–

Source: paper PMC9241057, “Ru(II)arene(N^N bpy/phen)-based RAPTA complexes for in vitro anti-tumour activity in human glioblastoma cancer cell lines and in vivo toxicity studies in a zebrafish model” (RSC Advances, 2022)
